Entries after “also recorded” stand apart in the source; their conditions may differ. Read-outs that look alike come from different tables or passages of the source.
How the values were obtained:
[1] = system: SK-N-FI neuroblastoma cells; assay: cells; details: for cytotoxicity at 0.1 µg/mL / cytotoxicity at 1 µg/mL: 120 h
Excerpt: (§1) Cell lines tested included: Glioblastoma cell lines VA-MG-SL and U-373-MG, neuroblastoma cell lines SK-N-AS, SK-N-FI and VA-N-BR, and two primitive neuroectodermal tumor cell lines SK-N-LO and SK-PN-DW at different concentrations. All cell lines were personally established from patients and cultured except U-373-MG (obtained from the American Type Culture Collection, Rockville, […]., USA). The cell lines SK-N-AS, SK-N-FI, SK-N-LO and SK-PN-DW have been reported in several publications and are believed to be representative of their respective lineages.
(§2) Stock cells in 25 cm^2 flasks were incubated in Dubelco's modified Eagle's medium (Sigma, St. Louis, Mo.) containing 10% fetal bovine serum at 37° C. and 5% CO2 in air for 5 days. Media was renewed on the sixth day and on the seventh day the cells were detached into a single cell suspension with trypsin EDTA, counted and aliquots plated at 3000 to 5000 cells in 0.1 ml fresh media in separate wells of a 96-well microliter plate (Becton-Dickinson Labware, Lincoln Park, N.J.). […] Six replicate wells were used in every experiment as controls and for each test concentration. Each experiment was repeated three separate times. Viability of the cell lines 5 days after exposure to drugs was determined by the MTT assay following published procedures.
(§3) Cytocidal activity was defined when the number of cells or the MTT surrogate optical density value was less than the initial inoculum. This is usually the case when ≥80% toxicity is recorded under these in vitro conditions.
(§4) Differences were considered to be statistically significant for a p-value of 0.05 or less.

[2] = system: U-373-MG glioblastoma cells; assay: cells; details: Homo sapiens, U373 MG; for cytotoxicity at 0.1 µg/mL / cytotoxicity at 1 µg/mL: 120 h
Excerpt: as §1, §2, §3, §4

[3] = system: VA-MG-SL glioblastoma cells; assay: cells; details: for cytotoxicity at 0.1 µg/mL / cytotoxicity at 1 µg/mL: Homo sapiens, 120 h
Excerpt: as §1, §2, §3, §4

[4] = system: VA-N-BR neuroblastoma cells; assay: cells; details: Neuroblastoma cell; for cytotoxicity at 0.1 µg/mL / cytotoxicity at 1 µg/mL: Homo sapiens, 120 h
Excerpt: as §1, §2, §3, §4

[5] = system: SK-N-AS neuroblastoma cells; assay: MTT cytotoxicity, SK-N-AS; details: for cytotoxicity at 0.01 µg/mL / cytotoxicity at 0.1 µg/mL / cytotoxicity at 1 µg/mL: Homo sapiens, 120 h
Excerpt: as §1, §2, §3, §4

SK-N-AS cells [6] = assay: Effects of spacing exposure to taxol on toxicity in SK-N-AS cells
Procedure: as §2

SK-N-AS cells [7] = assay: Cytopathologic changes after taxol exposure; format: cell-based, human; details: 1 μg/ml for 1 hour
Excerpt: Apoptosis was recognized as acute change in the cells. These included chromatin clumping at the periphery of the nucleus, loss of cytoplasmic detail and finally apoptotic bodies, either readily detached or floating with several being phagocytosed by surrounding cells.

[8] = system: SK-N-AS neuroblastoma tumor in nude mice; format: in vivo
Excerpt: (§5) Five nude mice were maintained in each cage with a fiberglass bonnet in a clean isolation room. All cages and food were sterilized prior to use. Female nude mice were inoculated subcutaneously with 3×10^6 human neuroblastoma (SK-N-AS) tumor cells. Between 8-16 days, tumor growth was evident and measured.

[9] = system: SK-N-AS neuroblastoma tumor in nude mice; assay: Studies B and D: antitumor activity, Q4Dx3 vs Q4Hx3; format: in vivo
clinical = assay: clinical; set-up: species or system human patients; details: human, in vivo, iv
Excerpt: Characteristics of the group of twenty were: male (5); female (15); median age 44 (17-81); ECOG-PS 1 (0-3). All were previously treated with chemotherapy and radiation for cancers of the breast (5), ovarian (2), brain (3), prostate (1), head and neck (4), bone (2), leiomyosarcoma (2), and melanoma (1).

[10] = system: recurrent or refractory solid tumors of childhood; assay: Study Y: pilot study of children with recurrent or refractory cancer; format: in vivo, human (children)
Procedure: A pilot study of children with recurrent or refractory cancer was initiated under our direction. Ten patients with a variety of recurrent or refractory solid tumors of childhood were treated with the same dosage and schedule as the adults described above.

[11] = 40 mg/kg single IP
Excerpt: as §5
Following sacrifice by cervical dislocation, tumor and normal tissues were immediately removed, sonicated, diluted in buffer (PBS containing 0.25% BSA, 0.05%, Tween 20, Methanol 20%, and Sodium Azide 2%). […] Tissue protein was determined using the BioRad kit (BioRad, 3300 Regatta Boulevard, Richmond, Calif. 94804).

[12] = read-out: concentration at which cell line was affected
[13] = Homo sapiens, SK-N-AS, 120 h, read-out: Survival (%)

Compound: CC(=O)O[C@H]1C(=O)[C@@]2(C)[C@H]([C@H](OC(=O)c3ccccc3)[C@]3(O)C[C@H](OC(=O)[C@H](O)[C@@H](NC(=O)c4ccccc4)c4ccccc4)C(C)=C1C3(C)C)[C@]1(OC(C)=O)CO[C@@H]1C[C@@H]2O [taxol]
- resilience of cell line to taxol (least/most resilient) ([1]; 0.01-1.0 μg/ml): the most
- cytotoxicity at 0.1 µg/mL ([1]; Homo sapiens, read-out: Taxol toxicity, SK-N-FI, 0.1 μg/ml x 1 h, 5 days after exposure): 0%
- cytotoxicity at 0.1 µg/mL ([1]; Homo sapiens, read-out: Taxol toxicity, SK-N-FI, 0.1 μg/ml x 4 h, 5 days after exposure): 0%
- cytotoxicity at 0.1 µg/mL ([1]; Homo sapiens, read-out: Taxol toxicity, SK-N-FI, 0.1 μg/ml x 24 h, 5 days after exposure, p < 0.05 vs 1 h): 14%
- cytotoxicity at 1 µg/mL ([1]; Homo sapiens, read-out: Taxol toxicity, SK-N-FI, 1.0 μg/ml x 1 h, 5 days after exposure): 0%
- cytotoxicity at 1 µg/mL ([1]; Homo sapiens, read-out: Taxol toxicity, SK-N-FI, 1.0 μg/ml x 4 h, 5 days after exposure): 58%
- cytotoxicity at 1 µg/mL ([1]; Homo sapiens, read-out: Taxol toxicity, SK-N-FI, 1.0 μg/ml x 24 h, 5 days after exposure, p < 0.05 vs 1 h): 76%
- minimal effective concentration ([1]; Homo sapiens, read-out: concentration at which cell line was affected): ≥ 0.1 µg/mL
- cytotoxicity at 0.1 µg/mL ([2]; read-out: Taxol toxicity, U-373-MG, 0.1 μg/ml x 1 h, 5 days after exposure): 46%
- cytotoxicity at 0.1 µg/mL ([2]; read-out: Taxol toxicity, U-373-MG, 0.1 μg/ml x 4 h, 5 days after exposure): 56%
- cytotoxicity at 0.1 µg/mL ([2]; read-out: Taxol toxicity, U-373-MG, 0.1 μg/ml x 24 h, 5 days after exposure): 57%
- cytotoxicity at 1 µg/mL ([2]; read-out: Taxol toxicity, U-373-MG, 1.0 μg/ml x 1 h, 5 days after exposure): 74%
- cytotoxicity at 1 µg/mL ([2]; read-out: Taxol toxicity, U-373-MG, 1.0 μg/ml x 4 h, 5 days after exposure): 79%
- cytotoxicity at 1 µg/mL ([2]; read-out: Taxol toxicity, U-373-MG, 1.0 μg/ml x 24 h, 5 days after exposure): 79%
- minimal effective concentration [2, 12]: ≥ 0.1 µg/mL
- cytotoxicity at 0.1 µg/mL ([3]; read-out: Taxol toxicity, VA-MG-SL, 0.1 μg/ml x 1 h, 5 days after exposure): 58%
- cytotoxicity at 0.1 µg/mL ([3]; read-out: Taxol toxicity, VA-MG-SL, 0.1 μg/ml x 4 h, 5 days after exposure): 56%
- cytotoxicity at 0.1 µg/mL ([3]; read-out: Taxol toxicity, VA-MG-SL, 0.1 μg/ml x 24 h, 5 days after exposure): 58%
- cytotoxicity at 1 µg/mL ([3]; read-out: Taxol toxicity, VA-MG-SL, 1.0 μg/ml x 1 h, 5 days after exposure): 87%
- cytotoxicity at 1 µg/mL ([3]; read-out: Taxol toxicity, VA-MG-SL, 1.0 μg/ml x 4 h, 5 days after exposure): 90%
- cytotoxicity at 1 µg/mL ([3]; read-out: Taxol toxicity, VA-MG-SL, 1.0 μg/ml x 24 h, 5 days after exposure): 86%
- minimal effective concentration [3, 12]: ≥ 0.1 µg/mL
- cytotoxicity at 0.1 µg/mL ([4]; read-out: Taxol toxicity, VA-N-BR, 0.1 μg/ml x 1 h, 5 days after exposure): 61%
- cytotoxicity at 0.1 µg/mL ([4]; read-out: Taxol toxicity, VA-N-BR, 0.1 μg/ml x 4 h, 5 days after exposure): 66%
- cytotoxicity at 0.1 µg/mL ([4]; read-out: Taxol toxicity, VA-N-BR, 0.1 μg/ml x 24 h, 5 days after exposure): 68%
- cytotoxicity at 1 µg/mL ([4]; read-out: Taxol toxicity, VA-N-BR, 1.0 μg/ml x 1 h, 5 days after exposure): 87%
- cytotoxicity at 1 µg/mL ([4]; read-out: Taxol toxicity, VA-N-BR, 1.0 μg/ml x 4 h, 5 days after exposure): 84%
- cytotoxicity at 1 µg/mL ([4]; read-out: Taxol toxicity, VA-N-BR, 1.0 μg/ml x 24 h, 5 days after exposure): 83%
- minimal effective concentration [4, 12]: ≥ 0.1 µg/mL
- cytotoxicity compared with a 1 hour exposure ([5]; 0.01 μg/ml, 24 hour): enhanced cytotoxicity
- toxicity in words ([5]; 0.01 μg/ml, ≥1 hour exposure): toxic
- resilience of cell line to taxol ([5]; 0.01-1.0 μg/ml): least resilient of the cell lines
- cytotoxicity at 0.01 µg/mL ([5]; read-out: Taxol toxicity, SK-N-AS, 0.01 μg/ml x 1 h, 5 days after exposure): 15%
- cytotoxicity at 0.01 µg/mL ([5]; read-out: Taxol toxicity, SK-N-AS, 0.01 μg/ml x 4 h, 5 days after exposure): 25%
- cytotoxicity at 0.01 µg/mL ([5]; read-out: Taxol toxicity, SK-N-AS, 0.01 μg/ml x 24 h, 5 days after exposure, p < 0.05 vs 1 h): 50%
- cytotoxicity at 0.1 µg/mL ([5]; read-out: Taxol toxicity, SK-N-AS, 0.1 μg/ml x 1 h, 5 days after exposure): 65%
- cytotoxicity at 0.1 µg/mL ([5]; read-out: Taxol toxicity, SK-N-AS, 0.1 μg/ml x 4 h, 5 days after exposure): 67%
- cytotoxicity at 0.1 µg/mL ([5]; read-out: Taxol toxicity, SK-N-AS, 0.1 μg/ml x 24 h, 5 days after exposure, p < 0.05 vs 1 h): 81%
- cytotoxicity at 1 µg/mL ([5]; read-out: Taxol toxicity, SK-N-AS, 1.0 μg/ml x 1 h, 5 days after exposure): 87%
- cytotoxicity at 1 µg/mL ([5]; read-out: Taxol toxicity, SK-N-AS, 1.0 μg/ml x 4 h, 5 days after exposure): 82%
- cytotoxicity at 1 µg/mL ([5]; read-out: Taxol toxicity, SK-N-AS, 1.0 μg/ml x 24 h, 5 days after exposure): 89%
- viability at 0.3 µg/mL (SK-N-AS cells [6]; [13]): 61%
- viability at 0.6 µg/mL (SK-N-AS cells [6]; [13]): 24%
- cytotoxic effects of single vs split exposure (SK-N-AS cells [6]; single exposure 0.6 μg/ml/h): greater than when taxol was scheduled as 0.3 μg/ml given once and once again after 30 minutes
- time of abnormal mitosis and polyploidy (SK-N-AS cells [7]): 36 to 72 h
- time of apoptosis (SK-N-AS cells [7]): 6 to 24 h
- cells altered by taxol (SK-N-AS cells [7]; at 24, 48 and 72 hours): Approximately 30%
- antitumor activity in words ([8]; 10 mg/kg IP Q4D×3): antitumor activity ranging from tumor growth inhibition to tumor lysis
- variance in response to drug therapy ([8]; 10 mg/kg IP Q4D×3): ranging from tumor lysis to slowed growth
- mice with delayed tumor growth ([8]; Study C, 10 mg/kg IP Q4D×3): 4/5
- mice with tumor regression ([8]; Study C, 10 mg/kg IP Q4D×3): 1/5
- tumor sizes or weight gain, day 1 vs day 14 ([8]; Treated Group B, 10 mg/kg IP Q4D×3): no significant difference in tumor sizes or weight gain
- weight gain between day 1 and day 14 ([8]; mouse, in vivo): no significant weight gain
- Wt, Day #1, MEAN ([8]; mouse, in vivo, ip, 10 mg/kg): 26.6
- Wt, Day #14, MEAN ([8]; mouse, in vivo, ip, 10 mg/kg): 28.8
- Tumor area, Day #1, MEAN ([8]; treated, 10 mg/kg IP Q4D×3, S.E. ±5.1): 60.3
- Tumor area, Day #5, MEAN ([8]; treated, 10 mg/kg IP Q4D×3, S.E. ±21.5): 93
- Tumor area, Day #9, MEAN ([8]; treated, 10 mg/kg IP Q4D×3, S.E. ±23.6): 105.6
- Tumor area, Day #14, MEAN ([8]; treated, 10 mg/kg IP Q4D×3, S.E. ±54.8): 142
- antitumor activity, Q4D×3 vs Q4H×3 ([9]; 15 mg/kg IP): greater antitumor activity than the Q4H×3 schedule
- antitumor activity, Q4D vs QD schedule ([9]; mouse, in vivo): better in the Q4D than in the QD schedule
- Kp (clinical): 0.01
- peripheral blood CMAX (clinical): 1400 ng/mL
- Cmax (clinical; 0-40 ng/ml CMAX (so in the source)): < 40 ng/mL
- half-life (clinical; T1/2 α): 15 min
- half-life (clinical; distributive phase T1/2 α): 7 to 20 min
- Cmax (clinical; peripheral blood CMAX): 1240 ng/mL
- tumor response on CT scan ([10]; one patient, pelvic embryonal rhabdomyosarcoma): shrinkage of their tumor
- decrease in tumor volume ([10]; one patient, recurrent glioblastoma multiforme, after 9 treatments): 30%
- progression ([10]; rhabdomyosarcoma patient, shortly following the 9th treatment): developed a brain metastasis
- Tumor size ([11]; day 1): 378 mm^2
- Tumor size ([11]; day 2): 480 mm^2
- Tumor size ([11]; day 3): 208 mm^2
- Tumor size ([11]; day 4): 80 mm^2
- Tumor size ([11]; day 5): 252 mm^2
- Tumor size ([11]; day 6): 154 mm^2
- concentration in normal tissues, treated vs controls (10 mg/kg IP Q4D×3, then single 20 mg/kg IP): consistently greater than in nontreated controls; also recorded: consistently greater than in Group A
- concentration in tumor vs liver, kidney or lung (after single 20 mg/kg IP): usually greater in tumor tissue compared to liver, kidney or lung
- distribution in tumor tissue compared to liver, kidney or lung (mouse, in vivo): four to thirty
- Taxol, tumor (treated (Cages II, III): 10 mg/kg Q4D×3, then 20 mg/kg IP 24 h prior, individual mice): 195.24 ng/mg Protein

Source: patent US5696153A, “Therapeutic regimen for treating patients” (priority 1996, dated 1997)
